# Measurements as given in patent US8071625B2, “Certain chemical entities, compositions, and methods” (Cytokinetics, Inc., priority 2006, dated 2011).
# Target: T1, crosslinked smooth muscle actomyosin (chicken gizzard smooth muscle myosin subfragment-1 crosslinked to cardiac or skeletal actin) (Gallus gallus, UniProt P10587)
# T1 construct: chicken gizzard smooth muscle myosin subfragment-1; from tissue; host or cells: chicken gizzard
# Assay: Lead optimization pyruvate kinase/horseradish peroxidase/pyruvate oxidase-coupled ATPase assay (compound dose response)
# Assay type: biochemical
# Details: read-out: IC50 Arithmetic Mean
# Method: Screening assays were performed using a pyruvate kinase and lactate dehydrogenase-coupled ATPase assay containing the following reagents: Potassium PIPES (50 mM), MgCl2 (3 mM), KCl (100 mM), ATP (0.15 mM), DTT (1 mM), BSA (0.1 mg/ml), NADH (0.5 mM), PEP (1.5 mM), pyruvate kinase (4 U/ml), lactate dehydrogenase (8 U/ml), and antifoam (50 ppm) (concentrations expressed are final assay concentrations). The pH was adjusted to 6.80 at 22° C. by addition of potassium hydroxide. Lead optimization assays were performed with a more sensitive pyruvate kinase/horseradish peroxidase/pyruvate oxidase-coupled ATPase assay containing the following reagents: Potassium PIPES (12 mM), MgCl2 (2 mM), KCl (100 mM), ATP (0.15 mM), BSA (0.05 mg/ml), potassium phosphate (2 mM), amplex red (0.1 mM), PEP (0.1 mM), pyruvate kinase (4 U/ml), horseradish peroxidase (0.5 U/ml), pyruvate oxidase (0.5 U/ml), and antifoam (50 ppm) (concentrations expressed are final assay concentrations). The pH was adjusted to 7.00 at 22° C. by addition of potassium hydroxide.
# The protein components specific to this assay are chicken gizzard smooth muscle myosin subfragment-1 that has been chemically crosslinked to either cardiac or skeletal actin using an excess of 1-Ethyl-3-[3-dimethylaminopropyl]carbodiimide hydrochloride and N-hydroxysuccinimide. The exact concentration of the crosslinked smooth muscle myosin in the assay is determined empirically, by titration to achieve a desired rate of ATP hydrolysis. The concentration varies between protein preparations due to variations in the fraction of active molecules in each preparation.
# Compound dose response assays are performed by first preparing a dilution series of test compound, each with an assay mixture containing potassium PIPES, MgCl2, KCl, ATP, BSA, potassium phosphate, amplex red, PEP, crosslinked smooth muscle actomyosin (subfragment-1), antifoam, and water. The assay is started by adding an equal volume of solution containing potassium Pipes, MgCl2, KCl, BSA, potassium phosphate, pyruvate kinase, horseradish peroxidase, pyruvate oxidase, antifoam, and water. ATP hydrolysis is monitored by measuring the fluorescence of amplex red (excitation at 480 nm, emission at 615 nm). The resulting dose response curve is fit by the 4 parameter equation y=Bottom+((Top-Bottom)/(1+((IC50/X)^Hill))). The IC50 is defined as the concentration at which ATPase activity is midway between the top and bottom of the dose response curve.
row,SMILES,IC50 [µM]
1,CCc1ccc(NC(=O)OCC2CN(C(=O)CN)CCN2C(=O)NCc2ccccc2Cl)cc1 (centres unmarked) [(4-(2-aminoacetyl)-2-{[N-(4-ethylphenyl)carbamoyloxy]methyl}piperazinyl)-N-[(2-chlorophenyl)methyl]carboxamide],2.38
2,CCc1ccc(NC(=O)OCC2(C(=O)NCc3ccc(Cl)cc3)CCN(C(=O)CNC(=O)OC(C)(C)C)CC2)cc1 [[(1-{2-[(tert-butoxy)carbonylamino]acetyl}-4-{N-[(4-chlorophenyl)methyl]carbamoyl}(4-piperidyl))methoxy]-N-(4-ethylphenyl)carboxamide],14.5
3,CCc1ccc(NC(=O)OCC2(C(=O)NCc3ccccc3Cl)CCN(C(=O)C(N)C(C)C)CC2)cc1 (centres unmarked) [(1-(2-amino-3-methylbutanoyl)-4-{[N-(4-ethylphenyl)carbamoyloxy]methyl}(4-piperidyl))-N-[(2-chlorophenyl)methyl]carboxamide],0.54
4,"CCc1ccc(NC(=O)OCC2(C(=O)NCc3ccccc3Cl)CCN(C(=O)C(O)CO)CC2)cc1 (centres unmarked) [(1-(2,3-dihydroxypropanoyl)-4-{[N-(4-ethylphenyl)carbamoyloxy]methyl}(4-piperidyl))-N-[(2-chlorophenyl)methyl]carboxamide]",0.123
5,"CCc1ccc(NC(=O)OC[C@@H]2C[C@@H](N)CN2C(=O)NCc2ccccc2Cl)cc1 [((5S,3R)-3-amino-5-{[N-(4-ethylphenyl)carbamoyloxy]methyl}pyrrolidinyl)-N-[(2-chlorophenyl)methyl]carboxamide]",1.44
6,CCc1ccc(NC(=O)OCC2(C(=O)NCc3ccccc3Cl)CCN(CCN)CC2)cc1 [(1-(2-aminoethyl)-4-{[N-(4-ethylphenyl)carbamoyloxy]methyl}(4-piperidyl))-N-[(2-chlorophenyl)methyl]carboxamide],1.16
7,Cc1c(Cl)cccc1CNC(=O)C1(COC(=O)Nc2ccc(C(F)(F)F)cc2)CCN(C(=O)CNC(=O)OC(C)(C)C)CC1 [[(1-{2-[(tert-butoxy)carbonylamino]acetyl}-4-{N-[(3-chloro-2-methylphenyl)methyl]carbamoyl}(4-piperidyl))methoxy]-N-[4-(trifluoromethyl)phenyl]carboxamide],5.65

# Continued, values first:
row,IC50 [µM],SMILES
1,18.2,CCc1ccc(NC(=O)NCC2(C(=O)NCc3ccccc3Cl)CCNCC2)cc1 [N-[(2-chlorophenyl)methyl][4-({[(4-ethylphenyl)amino]carbonylamino}methyl)(4-piperidyl)]carboxamide]
2,6.75,CCc1ccc(NC(=O)NCCN(C)C(=O)NCc2ccccc2Cl)cc1 [N-[2-({[(2-chlorophenyl)methyl]amino}-N-methylcarbonylamino)ethyl][(4-ethylphenyl)amino]carboxamide]
3,1.86,"CCc1ccc(NC(=O)OC[C@@H]2C[C@@H](NC(C)=O)CN2C(=O)NCc2ccccc2Cl)cc1 [N-((5S,3R)-1-{N-[(2-chlorophenyl)methyl]carbamoyl}-5-{[N-(4-ethylphenyl)carbamoyloxy]methyl}pyrrolidin-3-yl)acetamide]"
4,4.83,CCc1ccc(NC(=O)OCC2(C(=O)NCc3ccccc3Cl)CCN(C(=O)C3CCN3C(=O)OC(C)(C)C)CC2)cc1 (centres unmarked) [tert-butyl 2-[(4-{N-[(2-chlorophenyl)methyl]carbamoyl}-4-{[N-(4-ethylphenyl)carbamoyloxy]methyl}piperidyl)carbonyl]azetidinecarboxylate]
5,18.6,CCc1ccc(NC(=O)NC2(C(=O)NCc3ccccc3Cl)CCN(C(=O)OC)C2)cc1 (centres unmarked) [methyl 3-{N-[(2-chlorophenyl)methyl]carbamoyl}-3-{[(4-ethylphenyl)amino]carbonylamino}pyrrolidinecarboxylate]
6,3.55,"COC(=O)c1ccc(NC(=O)OCC2(C(=O)NCc3ccccc3Cl)CCOCC2)cc1 [methyl 4-{[(4-{N-[(2-chlorophenyl)methyl]carbamoyl}-2H-3,4,5,6-tetrahydropyran-4-yl)methoxy]carbonylamino}benzoate]"
7,0.346,CCc1ccc(NC(=O)OCCN(CCCCN)C(=O)NCc2ccccc2Cl)cc1 [[2-(N-(4-aminobutyl){[(2-chlorophenyl)methyl]amino}carbonylamino)ethoxy]-N-(4-ethylphenyl)carboxamide]
